This assay relates to SKBR-3 cell line (human breast cancer). Kind of assay: Cytotoxicity Assay (Cell titer glo, 72 h), SKBR-3. In kind it is cell-based. Conditions: for IC50: Homo sapiens, SK-BR-3, free payloads, 72 hours; for Normalized IC50 (PL IC50/DXD IC50): ratio of payload IC50 to DXD control IC50. As to the method:
Day 1: 2,000 cells/well were plated and incubated at 37° C. overnight.
Day 2: Payload/ADC/vehicle control dilutions were made in respective media and added to cells. Volume added: 50 uL to each well. Starting treatment concentration was 1 mM for free payloads/1 μM for ADC's/10% for vehicle control and then diluted 10-fold down for a total of 11 treatment dilutions. Each concentration was analyzed in triplicates. Media-only wells were used as a control to calculate percent viability.
Day 5: Cell titer glow reagent (volume: 50 uL) was added to each well, the plate was shaken for 5 mins and the luminescence was recorded. Drug Treatment Time: 72 hours. Data Analysis: Percent viability was calculated by dividing the luminescence signal obtained for each treated well by the untreated well (media-only control) and multiplying by 100. Data was next transformed using X=Log (x) and then analyzed with nonlinear regression (curve fit), Dose Response inhibition−log (inhibitor) vs response (3 parameters) using PRISM software to determine the IC50 value.

Here are results for 14 compounds from patent US20260315612A1, “Topoisomerase Inhibitors, Methods of Making, and Methods of Use Thereof” (NJ Bio, Inc., priority 2023, published 2026).

Turning to `CC[C@@]1(O)C(=O)OCc2c1cc1n(c2=O)Cc2c-1nc1cc(F)c(C)cc1c2Cn1cc(CN2CCOC(CN)C2)nn1` (stereo partly shown) [Payload 58], the 50% inhibitory concentration (IC50) (usually the midpoint of a concentration-inhibition curve) stood at 30.5 nM and the “Normalized IC50 (PL IC50/DXD IC50)” value turned out to be 23.79.

Take `CC[C@@]1(O)C(=O)OCc2c1cc1n(c2=O)Cc2c-1nc1cc(F)c(C)cc1c2Cn1cc(C2CCCN2C(=O)CO)nn1` (stereo partly shown) [Payload 61]: 211 nM corresponded to half-maximal inhibition (IC50) and the “Normalized IC50 (PL IC50/DXD IC50)” value came out at 177.62.

Turning to `CC[C@@]1(O)C(=O)OCc2c1cc1n(c2=O)Cc2c-1nc1cc(F)c(C)cc1c2Cn1cc(CO)nn1` [Payload 2], the IC50 turned out to be 80.9 nM and the “Normalized IC50 (PL IC50/DXD IC50)” value was 9.01.

For the compound `CC[C@@]1(O)C(=O)OCc2c1cc1n(c2=O)Cc2c-1nc1cc(F)c(C)cc1c2Cn1cc(-c2cccc(N)c2)nn1` [Payload 16], the IC50 amounted to 38.5 nM and the “Normalized IC50 (PL IC50/DXD IC50)” value came out at 8.55.

For `CC[C@@]1(O)C(=O)OCc2c1cc1n(c2=O)Cc2c-1nc1cc(F)c(C)cc1c2Cn1cc(CN2CCCC(N)C2)nn1` (stereo partly shown) [Payload 33], half-maximal inhibition (IC50) required 32.9 nM and the “Normalized IC50 (PL IC50/DXD IC50)” value came out at 22.96.

Regarding `CC[C@@]1(O)C(=O)OCc2c1cc1n(c2=O)Cc2c-1nc1cc(F)c(C)cc1c2Cn1cc(C(C)O)nn1` (stereo partly shown) [Payload 11], the IC50 was found to be 194 nM and the “Normalized IC50 (PL IC50/DXD IC50)” value is on record as 45.22.

`CC[C@@]1(O)C(=O)OCc2c1cc1n(c2=O)Cc2c-1nc1cc(F)c(C)cc1c2Cn1cc(CNC(=O)CO)nn1` [Payload 7]: inhibition was half-maximal at 1830 nM (IC50) and the “Normalized IC50 (PL IC50/DXD IC50)” value came out at 203.99.

`CC[C@@]1(O)C(=O)OCc2c1cc1n(c2=O)Cc2c-1nc1cc(F)c(C)cc1c2Cn1cc(CCCO)nn1` [Payload 59]: the half-maximal inhibitory concentration (IC50) came to 4.03 nM and the “Normalized IC50 (PL IC50/DXD IC50)” value is reported as 4.84.

Take `CC[C@@]1(O)C(=O)OCc2c1cc1n(c2=O)Cc2c-1nc1cc(F)c(C)cc1c2Cn1cc(C(C)(C)NC(=O)CO)nn1` [Payload 69]: the IC50 was found to be 95.8 nM and the “Normalized IC50 (PL IC50/DXD IC50)” value is listed as 104.13.

Take `CC[C@@]1(O)C(=O)OCc2c1cc1n(c2=O)Cc2c-1nc1cc(F)c(C)cc1c2Cn1cc(CCO)nn1` [Payload 39]: the IC50 was determined as 4.63 nM and the “Normalized IC50 (PL IC50/DXD IC50)” value was determined as 0.92.

For `CC[C@@]1(O)C(=O)OCc2c1cc1n(c2=O)Cc2c-1nc1cc(F)c(C)cc1c2Cn1cc(C(C)NC(=O)CO)nn1` (stereo partly shown) [Payload 64], inhibition was half-maximal at 20.6 nM (IC50) and the “Normalized IC50 (PL IC50/DXD IC50)” value is reported as 22.21.

With `CC[C@@]1(O)C(=O)OCc2c1cc1n(c2=O)Cc2c-1nc1cc(F)c(C)cc1c2Cn1cc(C2(N)CC2)nn1` [Payload 47], the half-inhibitory concentration (IC50) was found to be 33.2 nM and the “Normalized IC50 (PL IC50/DXD IC50)” value is recorded as 4.86.

Consider `CC[C@@]1(O)C(=O)OCc2c1cc1n(c2=O)Cc2c-1nc1cc(F)c(C)cc1c2Cn1nncc1CCO` [Payload 65], for which the IC50 amounted to 134 nM and the “Normalized IC50 (PL IC50/DXD IC50)” value is given as 18.50.

As for `CC[C@@]1(O)C(=O)OCc2c1cc1n(c2=O)Cc2c-1nc1cc(F)c(C)cc1c2Cn1cc(COCCN)nn1` [Payload 55], the IC50 stood at 25.2 nM and the “Normalized IC50 (PL IC50/DXD IC50)” value was 17.60.
